The values that follow come from patent US7737140B2, “Therapeutic compounds” (Allergan, Inc., priority 2008, dated 2010).

The subject of the test is lashes and adjacent hairs of the eyelids. Briefly: Clinical observation of lashes and adjacent hairs in glaucoma patients treated with bimatoprost in one eye. Type of test: in vivo. An excerpt:
In the course of treating patients having glaucoma, treatment may only be appropriate in one eye. […] The lash appearance on the lids of the treated eyes would have appeared quite attractive if it represented a bilateral phenomenon. As a result of its asymmetric nature, the long lashes on one side could be construed as disturbing from a cosmetic standpoint. A systemic examination was preformed as a result of the asymmetric phenomenon. It soon became apparent that this altered appearance was not an isolated finding. […] Definite differences could be identified to varying degrees in the lashes and adjacent hairs of all patients who were taking the drug on a unilateral basis for longer than 6 months.
The changes in the lashes were apparent on gross inspection in several patients once attention was focused on the issue. In those with light colored hair and lashes, the differences were only seen easily with the aid of the high magnification and lighting capabilities of the slit lamp biomicroscope. In the course of glaucoma follow-up examination, attention is generally immediately focused on the eye itself. As a result of the high power magnification needed only one eye is seen at a time and the eye is seen at a high enough power that the lashes are not in focus. […]

Regarding `CCNC(=O)CCC/C=C\C[C@@H]1[C@@H](/C=C/[C@@H](O)CCc2ccccc2)[C@H](O)C[C@@H]1O` [bimatoprost], under “conclusion from multiple parameters of hair appearance in many subjects”, the “hair growth in treated versus control areas” value was “stimulated”. Moreover, the “lashes in the treated eye compared with the non-treated eye” value (glaucoma patient treated with bimatoprost in only one eye) was “longer, thicker, and fuller”.
